# Earlier results as cited in patent US7897615B2 (Chugai Sciyaku Kabushiki Kaisha, priority 2003, dated 2011).
# pIC50: −log10 of the molar value.
# Columns and labels:
# [1] = tested on: CPT-I muscle (M) isoform; conditions: muscle isoform of CPT-I
# [2] = tested on: human breast cancer cells
SMILES,pIC50 [1],antitumor activity [2],malonyl-CoA level ([2]; breast carcinoma cells)
CC(C)(COP(=O)(O)OP(=O)(O)OC[C@H]1O[C@@H](n2cnc3c(N)ncnc32)[C@H](O)[C@@H]1OP(=O)(O)O)[C@@H](O)C(=O)NCCC(=O)NCCSC(=O)CC(=O)O [Malonyl-CoA],7.52,,
"CCCCCCCCCCCCCCOc1ccc(C(=O)O)o1 [TOFA, 5-(tetradecyloxy)-2-furoic acid]",,does not show any antitumor activity,60 % of the control
